Our source for the IC50 values is patent US8551984B2, “Aminopyrimidines as SYK inhibitors” (Merck Sharp & Dohme Corp., priority 2009, dated 2013).

A word on the IC50: it is the concentration at which inhibition is half-maximal.

The test concerns the target recombinant human SYK (GST-hSYK fusion protein) (Homo sapiens, UniProt P43405). Nature of the test: biochemical. The note with it: rhSYK Activity (IC50), recombinant human GST-SYK 5 pM, ATP 25 μM, biotinylated substrate peptide 250 nM, HTRF, 10-dose titration.

Excerpt: Homogeneous Time-Resolved Fluorescence (HTRF) Assay for the Recombinant Human SYK Enzyme:

Take `Cc1cc(Nc2nccc(OC3CCC(C(=O)O)CC3)n2)cc(-c2cnc(C3(O)CCC3)s2)c1` (stereo not shown) [Example 97, 4-{[2-({3-[2-(1-hydroxycyclobutyl)-1,3-thiazol-5-yl]-5-methylphenyl}amino)pyrimidin-4-yl]oxy}cyclohexanecarboxylic acid]: the half-maximal inhibitory concentration (IC50) is under 100 nM.

For `Cc1cc(Nc2nccc(Cl)n2)cc(-c2cnc(C(C)(O)C(F)(F)F)s2)c1` (stereo not shown) [Example 98, 2-(5-{3-[(4-chloropyrimidin-2-yl)amino]-5-methylphenyl}-1,3-thiazol-2-yl)-1,1,1-trifluoropropan-2-ol], the IC50 was under 100 nM.

As to `COc1ccnc(Nc2cc(C)cc(-c3cnc(C4(O)CCC4)s3)c2)n1` [Example 100A-1], the half-maximal inhibitory concentration (IC50) was under 100 nM.

For the molecule `Cc1cc(Nc2nccc(C)n2)cc(-c2cnc(C3(O)CCC3)s2)c1` [Example 100A-2], the IC50 was under 100 nM.

Take `Cc1cc(Nc2ncccn2)cc(-c2cnc(C3(O)CCC3)s2)c1` [Example 100A-3]: the IC50 was 100 to 1000 nM.

For `Cc1cc(Nc2ncc(F)cn2)cc(-c2cnc(C3(O)CCC3)s2)c1` [Example 100A-4], the half-maximal inhibitory concentration (IC50) fell in the range of 100 to 1000 nM.

Regarding `Cc1cc(Nc2ncc(Cl)cn2)cc(-c2cnc(C3(O)CCC3)s2)c1` [Example 100A-5], the IC50 is 100 to 1000 nM.

Turning to `CCc1cnc(Nc2cc(C)cc(-c3cnc(C4(O)CCC4)s3)c2)nc1` [Example 100A-6], the IC50 is 100 to 1000 nM.

For the molecule `Cc1cc(Nc2nccc(C#N)n2)cc(-c2cnc(C3(O)CCC3)s2)c1` [Example 100A-7], the IC50 was under 100 nM.

In the case of `Cc1cc(Nc2nc(C)cc(C)n2)cc(-c2cnc(C3(O)CCC(C(=O)O)C(C)(C)C3)s2)c1` (stereo not shown) [Example 100A-9], the IC50 lay in the range of 100 to 1000 nM.

Take `COc1nc(Nc2cc(C)cc(-c3cnc(C4(O)CCC(O)CC4)s3)c2)ncc1C(F)(F)F` (stereo not shown) [Example 100A-11]: the IC50 lay in the range of 100 to 1000 nM.

On to `COc1nc(Nc2cc(C)cc(-c3cnc(C4(O)CCC(C(=O)O)C(C)(C)C4)s3)c2)ncc1C` (stereo not shown) [Example 100A-13], for which the concentration for half-maximal inhibition (IC50) is under 100 nM.

As to `Cc1cc(Nc2ncc(C)c(N(C)C)n2)cc(-c2cnc(C3(O)CCC(C(=O)O)C(C)(C)C3)s2)c1` (stereo not shown) [Example 100A-16], the IC50 is under 100 nM.

As for `Cc1cc(Nc2nccc(C(C)(C)O)n2)cc(-c2cnc(C3(O)CCC(C(=O)O)C(C)(C)C3)s2)c1` (stereo not shown) [Example 100A-17], the IC50 is under 100 nM.

With `Cc1cc(Nc2nccc(C(F)C3CC3)n2)cc(-c2cnc(C3(O)CCC(C(=O)O)C(C)(C)C3)s2)c1` (stereo not shown) [Example 100A-20], the IC50 was under 100 nM.

`Cc1cc(Nc2nccc(C=CC(C)(C)O)n2)cc(-c2cnc(C3(O)CCC(C(=O)O)C(C)(C)C3)s2)c1` (stereo not shown) [Example 100A-23]: the 50% inhibitory concentration (IC50) was under 100 nM.

For `Cc1cc(Nc2nccc(C(C)(O)C3CC3)n2)cc(-c2cnc(C3(O)CCC(C(=O)O)C(C)(C)C3)s2)c1` (stereo not shown) [Example 100A-24], the 50% inhibitory concentration (IC50) is under 100 nM.

With `COC(=O)C1CCC(O)(c2ncc(-c3cc(C)cc(Nc4ncc(C(F)(F)F)c(OC)n4)c3)s2)CC1(C)C` (stereo not shown) [Example 100A-27], the IC50 was in the range of 1000 to 10000 nM.

Turning to `COC(=O)[C@H]1CC[C@](O)(c2ncc(-c3cc(C)cc(Nc4ncc5c(n4)CCC5)c3)s2)CC1(C)C` [Example 100A-29], the IC50 lay in the range of 100 to 1000 nM.

Regarding `COc1ccnc(Nc2cc(C)cc(-c3cnc(C(C)(O)C(F)(F)F)s3)c2)n1` (stereo not shown) [Example 100B-1], the IC50 was under 100 nM.

Consider `Cc1cc(Nc2ncc(F)cn2)cc(-c2cnc(C(C)(O)C(F)(F)F)s2)c1` (stereo not shown) [Example 100B-2], for which the IC50 was under 100 nM.

With `COc1cnc(Nc2cc(C)cc(-c3cnc(C(C)(O)C(F)(F)F)s3)c2)nc1` (stereo not shown) [Example 100B-3], the half-maximal inhibitory concentration (IC50) lay within 100 to 1000 nM.

On to `Cc1cc(Nc2ncc(C3CC3)cn2)cc(-c2cnc(C(C)(O)C(F)(F)F)s2)c1` (stereo not shown) [Example 100B-4], for which the half-maximal inhibitory concentration (IC50) was 1000 to 10000 nM.

Turning to `Cc1cnc(Nc2cc(C)cc(-c3cnc(C(C)(O)C(F)(F)F)s3)c2)nc1` (stereo not shown) [Example 100], the IC50 was under 100 nM.

For the molecule `Cc1cc(Nc2ncccn2)cc(-c2cnc(C(C)(O)C(F)(F)F)s2)c1` (stereo not shown) [Example 101, 1,1,1-trifluoro-2-{5-[3-methyl-5-(pyrimidin-2-ylamino)phenyl]-1,3-thiazol-2-yl}propan-2-ol], the IC50 fell in the range of 100 to 1000 nM.

In the case of `CCOC(=O)C1CCC(O)(c2ncc(-c3cc(C)cc(Nc4nccc(C(C)(C)C)n4)c3)s2)CC1C` (stereo not shown) [Example 101-1], the half-inhibitory concentration (IC50) was under 100 nM.

`COC(=O)[C@H]1CC[C@](O)(c2ncc(-c3cc(C)cc(Nc4nccc(C(C)C)n4)c3)s2)CC1(C)C` [Example 101-2]: the IC50 was under 100 nM.

Regarding `COC(=O)[C@H]1CC[C@](O)(c2ncc(-c3cc(C)cc(Nc4nccc(C(C)(C)C)n4)c3)s2)CC1(C)C` [Example 101-3], the IC50 was under 100 nM.

Take `COC(=O)[C@H]1CC[C@](O)(c2ncc(-c3cc(C)cc(Nc4nccc(OC(C)C)n4)c3)s2)CC1(C)C` [Example 101-4]: the 50% inhibitory concentration (IC50) is under 100 nM.

As to `C=Cc1ccnc(Nc2cc(C)cc(-c3cnc([C@@]4(O)CC[C@H](C(=O)OC)C(C)(C)C4)s3)c2)n1` [Example 101-5], the concentration for half-maximal inhibition (IC50) is under 100 nM.

Take `COC(=O)[C@H]1CC[C@](O)(c2ncc(-c3cc(C)cc(Nc4nccc(C5CCC5)n4)c3)s2)CC1(C)C` [Example 101-6]: the half-inhibitory concentration (IC50) is under 100 nM.

As for `COC(=O)[C@H]1CC[C@](O)(c2ncc(-c3cc(C)cc(Nc4nccc(C(N)=O)n4)c3)s2)CC1(C)C` [Example 101-7], the IC50 was under 100 nM.

Take `COc1nc(Nc2cc(C)cc(-c3cnc(C4(O)CCC4)s3)c2)ncc1Cl` [Example 102, 1-(5-{3-[(5-chloro-4-methoxypyrimidin-2-yl)amino]-5-methylphenyl}-1,3-thiazol-2-yl)-cyclobutanol]: the half-inhibitory concentration (IC50) was under 100 nM.

With `Cc1cc(Nc2ncc(Cl)c(C)n2)cc(-c2cnc(C3(O)CCC3)s2)c1` [Example 103, 1-(5-{3-[(5-chloro-4-methylpyrimidin-2-yl)amino]-5-methylphenyl}-1,3-thiazol-2-yl)cyclobutanol], the IC50 is under 100 nM.

In the case of `C=Cc1ccnc(Nc2cc(C)cc(-c3cnc(C4(O)CCC4)s3)c2)n1` [Example 104, 1-(5-{3-[(4-ethenylpyrimidin-2-yl)amino]-5-methylphenyl}-1,3-thiazol-2-yl)cyclobutanol], the IC50 is under 100 nM.

Take `COC/C=C/c1ccnc(Nc2cc(C)cc(-c3cnc(C4(O)CCC(C(=O)OC(C)(C)C)CC4)s3)c2)n1` (stereo not shown) [Example 104-1]: the 50% inhibitory concentration (IC50) is 100 to 1000 nM.

As for `COC/C=C/c1ccnc(Nc2cc(C)cc(-c3cnc(C4(O)CCC(C(=O)O)CC4)s3)c2)n1` (stereo not shown) [Example 104-2], the half-maximal inhibitory concentration (IC50) was under 100 nM.

Consider `Cc1cc(Nc2nccc(C(O)CO)n2)cc(-c2cnc(C3(O)CCC3)s2)c1` (stereo not shown) [Example 105, 1-[2-({3-[2-(1-hydroxycyclobutyl)-1,3-thiazol-5-yl]-5-methylphenyl}amino)pyrimidin-4-yl]ethane-1,2-diol], for which the IC50 is under 100 nM.

Regarding `CC(=O)c1ccnc(Nc2cc(C)cc(-c3cnc(C(C)(O)C(F)(F)F)s3)c2)n1` (stereo not shown) [Example 106, 1-[2-({3-methyl-5-[2-(1,1,1-trifluoro-2-hydroxypropan-2-yl)-1,3-thiazol-5-yl]phenyl}amino)pyrimidin-4-yl]ethanone], the 50% inhibitory concentration (IC50) was under 100 nM.

For `Cc1cc(Nc2nccc(C3CCC3)n2)cc(-c2cnc(C3(O)CCC3)s2)c1` [Example 107, 1-(5-{3-[(4-cyclobutylpyrimidin-2-yl)amino]-5-methylphenyl}-1,3-thiazol-2-yl)cyclobutanol], the IC50 was under 100 nM.
